For `O=C(CSc1n[nH]c(-c2ccccc2)n1)C12CC3CC(CC(C3)C1)C2`, the melting point was in the range of 187 to 188 °C.
In the case of `COC[C@@H](NC(C)=O)C(=O)NCc1ccc(N=[N+]=[N-])cc1` it was 149 to 150 °C; in that of `COC(=O)C(c1ccccc1)N1C(=O)C(N=[N+]=[N-])C1Sc1nnc(C)s1` (configuration not stated), 81 to 84 °C; in that of `c1ccc(C(c2ccccc2)(c2ccccc2)N2CCCC2)cc1`, 126 °C.
Regarding `Cc1cc2ccccn2c1C(=O)c1ccc([N+](=O)[O-])cc1`, the melting point was 149 °C.
In the case of `CCN1CCN(c2c(F)cc3c(=O)c(C(=O)O)cn(C4CC4)c3c2C#N)CC1` it was above 300 °C; in that of `CS(=O)CC(=O)Nc1c(C(=O)c2ccccc2)[nH]c2cc(Cl)ccc12` (configuration not stated), 191 to 192 °C; in that of `COc1ccc2c(c1)CCC(Cc1ccccc1)C2=O` (configuration not stated), 50 to 51 °C.
Next, `CC(=O)OC1CCC2(C)C(CCC3C4CCC(C(C)=O)C4(C)CC(=O)C32)C1` (configuration not stated): 130 to 133 °C; `Nc1nc(Cl)cc(NCCCCO)n1`: 110 to 112 °C; `c1cc(CCCn2ccnc2)cc(OCc2coc(-c3cccs3)n2)c1`: 112 to 113 °C.
In the case of `O=C1CCC(c2ccccc2)(c2ccccc2)C2CN(C(Cc3ccccc3)=NCCc3ccccc3)CC12` (configuration not stated) it was 188 °C; in that of `CC(C)(C)NNC(=O)OC(C)(C)C`, 69 to 71 °C.
As for `CC(C)CCC(Sc1ccccc1)c1c(O)cc(-c2ccccc2)oc1=O` (configuration not stated), the melting point is 144 to 145 °C.
In the case of `O=C(O)c1nc2cc(N3CCN(Cc4ccccc4)CC3)c([N+](=O)[O-])cc2[nH]c1=O` it was 278 to 280 °C.
In the case of `CN1Cc2c(C(=O)OC(C)(C)C)ncn2-c2cccc(Cl)c2C1=O` it was 188 to 190 °C; in that of `CC(C)c1ccc(/C=C/C(=O)/C=C/c2ccccc2)cc1`, 76 to 78 °C.
In turn, `Cc1[nH]n(C2CCCC2)c2nc(-c3cc[nH]c(=O)c3)nc(=O)c1-2` showed a melting point above 300 °C.
In the case of `CSc1nn2c(N(C)C)cc(C)nc2c1S(=O)(=O)c1ccc(C(C)C)cc1` it was 222 to 224 °C; in that of `Cn1c(Br)nc2c1C(=O)N1CCN=C1N2Cc1ccc(Cl)cc1`, 206 to 207 °C.
In the case of `O=c1ccc(-c2cc(F)cc(F)c2)n[nH]1` it was 230 °C; in that of `O=C1C(c2cccc(C(F)(F)F)c2)=C(NC2CC2)OC1c1ccccc1` (configuration not stated), 160 to 164 °C.
In the case of `COc1ccc(-c2cc(C3CCN(C(=O)c4ccccc4)CC3)nc(N)n2)cc1` it was 165 to 166 °C.
On to `COc1ccc(C(=O)N(C)c2ccc(C(=O)O)cc2)cc1`, for which the melting point lay in the range of 157 to 160 °C.
Turning to `CC(C)(C)C(=O)C(Cl)NC(=O)c1ccc(Cl)cc1` (configuration not stated), the melting point lay in the range of 132 to 135 °C.
In the case of `N#Cc1cc2c(cc1F)S(=O)(=O)NCN2C1CC1` it was 208 to 210 °C; in that of `CCCCCCCCn1nnc(C(C(=O)Nc2c(OC)cc(OC)cc2OC)c2ccccc2)n1` (configuration not stated), 113 to 116 °C.
In the case of `CC1Cc2cc3c(cc2C(c2ccc([N+](=O)[O-])cc2)=NN1c1nc(C(=O)O)cs1)OCO3` (configuration not stated) it was above 260 °C.
The compound `CCC(C(=O)c1ccc(N(CCN(CC)CC)S(C)(=O)=O)cc1)c1ccccc1` (configuration not stated) gave a melting point of 76 to 77 °C.
Next, `O=[N+]([O-])c1ccc(-c2ccc(CCl)o2)cc1`: 97 to 99 °C.
In the case of `CO[C@H]1CN(c2c(F)c(N)c3c(=O)c(C(=O)O)cn(C4CC4)c3c2F)C[C@H]1N` (relative stereo) it was 222 to 223 °C; in that of `CC1(C)CCc2cc(S(=O)(=O)n3c(CCCC(=O)O)cc4cc(Cl)ccc43)ccc2O1`, 166 to 169 °C; in that of `COCOc1cccc2cccc(C=O)c12`, 56 to 57 °C.
In the case of `COc1c(OCCCCCC(=O)N(CCO)C2CCCCC2)ccc2c1CN1CC(=O)NC1=N2` it was 208 to 209 °C.
Compound `CC(C)(C)OC(=O)c1nc(-c2ccc(Cl)cc2Cl)n(-c2ccc(Cl)cc2)c1Br` came in with a melting point of 198 to 200 °C.
Next, `Nc1ccccc1C(=O)NCCN1CCC(n2c(=O)[nH]c3cc(Cl)ccc32)CC1`: 227 °C; `CCNC(C)c1nc(CSCCNC(=C[N+](=O)[O-])NC)cs1` (configuration not stated): 114 to 116 °C.
In the case of `CN1CCN(C(=O)Cn2c(=O)sc3ncc(Cl)cc32)CC1` it was 198 to 200 °C.
`CC(C)(C)OC(=O)NCCOC(=O)COc1ccc(CCCCN(C(=N)N)C(=O)c2nc(Cl)c(N)nc2N)cc1`: the melting point is 80 to 82 °C.
In turn, `COC(=O)C[C@H](C(=O)OC)N1C(=O)[C@@H](N2C(=O)c3ccccc3C2=O)[C@H]1C=Cc1ccccc1` had a melting point of 138 to 140 °C.
The compound `CCC(=O)c1ccc2c(c1)C1(CC1)C(=O)N2` registered a melting point of 183 to 185 °C.
`COC(=O)C1(S(=O)(=O)N2CCC(=O)CC2)CCOCC1`: the melting point lay in the range of 158 to 160 °C.
`CCCc1ccc(-c2c3ccccc3c(-c3ccc(CCC)cc3)c3cc(Cl)ccc23)cc1`: the melting point fell in the range of 225 to 227 °C.
Take `COC(=O)c1ccc2cc(OC)c(OC)cc2c1-c1ccnc(Br)c1`: the melting point fell in the range of 146 to 148 °C.
Next, `COc1ccc(CSCC(C)C(=O)O)cc1` (configuration not stated): 74 to 82 °C.
Consider `C(#Cc1ccccn1)CCc1nc2ccccc2s1`, for which the melting point fell in the range of 98.5 to 99.4 °C.
Next, `Cc1ccc2oc(-c3ccccc3-c3nnnn3C(c3ccccc3)(c3ccccc3)c3ccccc3)c(Br)c2c1`: 199 to 200 °C.
`COCC(c1cc(C)ccc1C)S(=O)(=O)c1ccccn1` (configuration not stated): the melting point was 91 to 93 °C.
In the case of `Cc1ccc(-c2cc(CN)c(=O)n(CC(C)C)n2)cc1` it was 74.9 to 77.9 °C.
In the case of `C=Cc1cc(C=Cc2cc(C(C)(C)C)cc(C(C)(C)C)c2)cc(C=Cc2cc(C(C)(C)C)cc(C(C)(C)C)c2)c1` it was 143 to 145 °C.
In the case of `COCOc1ccc(C(=O)c2ccc(OCc3nc(-c4ccccc4)oc3C)cc2)c(O)c1` it was 105 to 107 °C.
`CN1C(=O)CC[C@]2(C)c3ccc(SCc4ccccc4)cc3CC[C@@H]12` displayed a melting point of 137 to 138 °C.
The compound `O=C(O)c1ccc2c(c1)nc(-c1ccc(Oc3cccc(Br)c3)cc1)n2C1CCCCC1` yielded a melting point of 255 to 256 °C.
In the case of `O=[N+]([O-])c1cc(S(=O)(=O)NC(CO)CO)sc1Cl` it was 132 °C; in that of `Cc1ccc(S(=O)(=O)NC2(S(=O)(=O)n3ccc(/C=C/C(=O)NO)c3)C=CC(c3ccccc3)=CC2)cc1` (configuration not stated), 119 to 126 °C; in that of `CCN(CC)C(=O)COc1cc2ccccc2c(-c2ccccc2)n1`, 105 °C.
Next, `CCc1noc(-c2cn(-c3cccnc3)cn2)n1`: 152 to 153 °C.
`COc1ccc2c(c1)CCC1(CCCCN1C(=O)C(F)(F)F)C2` (configuration not stated) yielded a melting point of 75 to 76 °C.
Next, `NC(=O)N(O)C1C=C(c2cccc(Oc3ccc(Cl)cc3)c2)CC1` (single isomer, unassigned; (+)): 143 to 144 °C.
For `O=C1c2c(O)ccc(O)c2-c2nn(CC(O)CO)c3ccc(NCCNCCO)c1c23` (configuration not stated), the melting point is 184 to 188 °C.
Next, `CCCCCCc1nc2c(N)nc3ccccc3c2n1CCCCNC(=O)Nc1ccccc1`: 170 to 172 °C; `CCC(C)c1ccccc1N1C(=O)CS/C1=N\C(=O)Nc1ccc(-c2ncn(-c3ccc(OC(F)(F)F)cc3)n2)cc1` (configuration not stated): 169 to 177 °C; `COc1ccc(OC)c(S(=O)(=O)Nc2onc(C)c2Br)c1`: 118 to 120 °C.
As to `O=C1CC(c2ccccc2)Cc2[nH]ccc21` (configuration not stated), the melting point fell in the range of 187 to 189 °C.
Next, `Cc1ccc(C(=O)N2CCN(CC3(C)Cc4c(C)c(N)c(C)c(C)c4O3)CC2)cc1` (configuration not stated): 131 to 133 °C; `C(#Cc1ccccc1)C1=CCN(Cc2c[nH]c3ncccc23)CC1`: 198 to 200 °C.
In the case of `CCc1nc(/C=C/c2cn(-c3ccccc3)nc2O)co1` it was 157 to 159 °C; in that of `[N-]=[N+]=NCC1OC(n2c(N=[N+]=[N-])nc3c(N)ncnc32)C(O)C1O` (configuration not stated), 128 to 130 °C.
Next, `CC(=O)OC1CCC2(C)C(CCC3C4CCC(C(C)=O)C4(C)CC(O)C32Cl)C1` (configuration not stated): 175 to 179 °C.
`CC(=O)SCC(CC#N)C(=O)O` (configuration not stated): the melting point lay in the range of 110 to 112 °C.
Next, `CCc1nn(C2CCCC2)c2cc(C(=O)N(C)c3c(Cl)cncc3Cl)ccc12`: 118 to 119 °C; `CC(C)(O)/C=C\C(C)(C)O`: 64 °C; `c1cc2ccsc2cn1`: below 50 °C.
In the case of `CC(C)n1nc(-c2cnc(N)nc2-c2ccccc2)ccc1=O` it was 214 to 215 °C; in that of `CCOC(=O)c1cn(CCc2ccc(OC)cc2)c2cc(C3CC3)nn2c1=O`, 160 to 165 °C; in that of `COc1cc(C2C3=C(COC3=S)N(Cc3ccccc3)c3cc4c(cc32)OCO4)cc(OC)c1OC` (configuration not stated), 130 °C.
In the case of `CCCCCCCCCCCCCCCCCCCCC1Cc2cc(C(=O)O)ccc2N1` (racemic) it was 110 to 115 °C; in that of `CCCc1nn(C)c2c(=O)n(CCCOc3ccc(SC(C)(C)C(=O)OCC)cc3)c(CC)nc12`, 52 to 54 °C; in that of `O=c1n(CCCCl)nc2n1-c1ccccc1OC2`, 77 to 78 °C.
Turning to `COc1c(N2CC(O)C2)c(F)cc2c(=O)c(C(=O)O)cn(C3CC3)c12`, the melting point is 246 to 250 °C.
Next, `Cc1ccccc1C1=NC(C)(C)OC1c1ccc(N(C)C)cc1` (configuration not stated): 89 to 90 °C.
Next, `CCCCCCc1cc(SC)ccc1OC(=O)c1ccccc1`: 57 to 58 °C.
In the case of `Cc1ccc(Nc2cc(NCc3ccccc3)c(C(=O)O)cc2S(N)(=O)=O)cc1` it was 128 °C; in that of `O=C(O)c1cccc(COc2ccccc2Cl)c1COc1ccccc1Cl`, 107 to 109 °C; in that of `CC(C)[C@H](NC(=O)OCc1csc(N(C)C)n1)C(=O)N[C@@H](Cc1ccccc1)C[C@H](O)[C@H](Cc1ccccc1)NC(=O)OCc1cncs1`, 162 to 165 °C.
For `CCOC(=O)C(C)Oc1ncn(-c2ccc(OC(F)(F)F)cc2)n1` (configuration not stated), the melting point was 52 to 53 °C.
Next, `CC(C)(C)OC(=O)N[C@@H](Cc1cncn1COCc1ccccc1)C(=O)O`: 155 to 157 °C.

The values above are taken from a melting point compilation (Tetko et al.; mined from patent text by program, amines drawn as free bases though some values may be those of a salt).
